Legend:
[1] = 101 kPa, Liquid, Vibrating tube method
[2] = mn = molality of the nth substance listed, in mol/kg; conditions: 101 kPa, Liquid; for speed of sound: Frequency=3 MHz, Sing-around technique in a fixed-path interferometer; for mass density: Vibrating tube method

O [water]
[1]
Conditions | mass density [kg/m3]
288.15 K | 999.591
293.15 K | 998.551
298.15 K | 997.255
303.15 K | 995.775
308.15 K | 994.329

OC[C@H]1O[C@@](CO)(O[C@H]2O[C@H](CO)[C@@H](O)[C@H](O)[C@H]2O)[C@@H](O)[C@@H]1O [D-sucrose] + O
[2]
Conditions | mass density, 288.15 K [kg/m3] | mass density, 293.15 K [kg/m3] | mass density, 298.15 K [kg/m3] | mass density, 303.15 K [kg/m3] | mass density, 308.15 K [kg/m3] | speed of sound, 288.15 K [m/s] | speed of sound, 293.15 K [m/s] | speed of sound, 298.15 K [m/s] | speed of sound, 303.15 K [m/s] | speed of sound, 308.15 K [m/s]
m1 = 0.05 | 1006.43 | 1005.42 | 1004.16 | 1002.72 | 1001.27 | 1471.5 | 1487.4 | 1501.4 | 1513.5 | 1523.7
m1 = 0.15 | 1019 | 1017.99 | 1016.73 | 1015.24 | 1013.54 | 1481 | 1496.3 | 1509.9 | 1521.7 | 1531.8
m1 = 0.25 | 1030.99 | 1029.9 | 1028.58 | 1026.97 | 1025.28 | 1490.7 | 1505.7 | 1518.9 | 1530.3 | 1539.9
m1 = 0.35 | 1042.86 | 1041.71 | 1040.32 | 1038.71 | 1036.92 | 1500.5 | 1515 | 1527.7 | 1538.7 | 1548.2
